Like-named read-outs stand apart in the source and are kept apart here. Where a SMILES comes first, the peptide text is derived from it. Bridges are numbered along the chain shown (N, C = ends).
How the values were obtained:
Drosophila [1] = assay: climbing assay with paraquat; type: in vivo; details: control flies, paraquat 10 mM 48 hours, L-DOPA 1 mM 48 hours
Procedure: Climbing assays were performed using the following Drosophila lines: y, w; Actin5C-GAL4/CyO, y+ (Actin only); y, w; UAS-CG3016-RNAi/CyO, y+ (RNAi only); y, w; UAS-CG3016^RNAi, Actin5C-GAL4/CyO, y+ (USP30 knockdown).
1-day old adult males were fed a solution containing 5% sucrose only (in water) or 5% sucrose+10 mM paraquat (in water) on saturated Whatman paper. After 48 hours of treatment, flies were anesthetized using carbon dioxide and transferred in groups of ten to vials containing only 1% agarose for a 1-hour recovery period from the effects of carbon dioxide. The flies were then transferred into a new glass tube, gently tapped to the bottom and scored for their ability to climb. The number of flies climbing vertically >15 cm in 30 seconds was recorded.
To examine the effect of suppressing USP30 in neurons that are relevant to PD, we used dopamine decarboxylase (Ddc)-GAL439 to drive dUSP30^RNAi specifically in aminergic neurons of the fly nervous system. As a model of mitochondrial damage and PD, we treated flies with paraquat, a mitochondrial toxin linked to PD (Castello et al., J. Biol. Chem., 282: 14186-14193 (2007); Cocheme et al., J. Biol. Chem., 283: 1786-1798 (2008); Tanner et al., Environmental Health Perspect., 119: 866-872 (2011)). […]

[2] = molecular target: T1, USP30_cd (USP30 catalytic domain with C77A mutation) (Homo sapiens, UniProt Q70CQ3, C77A); assay: spot phage ELISA against biotinylated USP30_cd; type: binding; details: USP30_cd on NeutrAvidin plate versus NeutrAvidin plate alone
T1 construct: biotinylated USP30_cd (USP30 catalytic domain with C77A mutation); biotin (biotinylated)
T1 sequence (Q70CQ3 68-502 C77A limits assumed): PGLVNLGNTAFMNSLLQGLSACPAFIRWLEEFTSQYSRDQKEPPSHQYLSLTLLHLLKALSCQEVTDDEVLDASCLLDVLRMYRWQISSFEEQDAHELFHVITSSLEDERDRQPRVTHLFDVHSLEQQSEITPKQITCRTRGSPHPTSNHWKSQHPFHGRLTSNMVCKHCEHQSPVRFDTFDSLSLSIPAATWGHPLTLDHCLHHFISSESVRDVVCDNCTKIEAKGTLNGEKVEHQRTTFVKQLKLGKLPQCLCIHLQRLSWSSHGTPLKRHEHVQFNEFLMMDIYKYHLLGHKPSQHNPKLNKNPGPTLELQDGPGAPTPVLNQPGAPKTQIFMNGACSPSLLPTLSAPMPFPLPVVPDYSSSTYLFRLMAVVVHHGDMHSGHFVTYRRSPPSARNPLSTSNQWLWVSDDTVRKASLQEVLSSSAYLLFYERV
Description: The selection identified peptide USP30_3 and USP30_8, which had moderate spot ELISA signals (signal/noise ratios of ˜5). USP_30 and USP_8 have the sequences:
Peptide USP30_3 was selected for affinity maturation. To improve the affinity, a soft randomized library was constructed using the USP30_3 sequence as the targeted parent, and panned against USP30_cd in solution as described previously (Stanger, et al., 2012, Nat. Chem. Bio., 7: 655-660). After four rounds of solution panning, 20 peptides were identified that bound to USP30 catalytic domain with stronger spot phage ELISA signal than the parent USP30_3, manifested by an improvement in the signal/noise ratio of about 3-6 fold.
The sequences for certain affinity matured peptides are shown below the graph, along with the signal to noise ratio (“S/N”), which is the ratio of the spot phage ELISA signal (“signal”) detected against biotinylated USP30 cd captured on NeutrAvidin-coated 384 well Maxisorb plates versus the ELISA signal against the NeutrAvidin-coated plate alone. […] All of the affinity matured peptides shown had signal to noise ratios of greater than 10 except for USP30_3.27 and USP30_3.62.

Drosophila [3] = type: in vivo; details: Actin-GAL4 and UAS-dUSP30^RNAi control groups, paraquat 10 mM, 96 hours
Procedure: Ten adult 1-day old males per vial were fed a solution containing 5% sucrose only (in water) or 5% sucrose+10 mM paraquat (in water) on saturated Whatman paper. The number of live flies was counted at described intervals.
To test whether USP30 knockdown has an effect on organism survival, we monitored the percentage of live flies over prolonged treatment with paraquat (10 mM, 96 hours). […] Only <15% of flies treated with paraquat were alive in Actin-GAL4 and UAS-dUSP30^RNAi control groups at 96 hours whereas ˜45% of flies were alive in the Actin-GAL4>UAS-dUSP30^RNAi (‘whole body dUSP30 knockdown’) group (FIG. 12G). We confirmed that the benefit of USP30 knockdown was not due to differences in exposure to paraquat since all three fly lines ingested roughly equal amounts of paraquat as measured by LC-MS/MS (average mass of paraquat per fly: UAS-dUSP30^RNAi: 3.2 μg, Actin-GAL4: 2.7 μg, Actin-GAL4>UAS-dUSP30R^RNAi: 2.7 μg). […] Remarkably, USP30 knockdown specifically in Ddc neurons was sufficient to provide significant survival benefit, albeit less than the whole body USP30 knockdown (FIG. 12H).

Drosophila [4] = assay: dopamine levels in fly heads by ELISA; type: in vivo; details: control fly lines, paraquat 10 mM, 48 hours
Description: To examine the effect of suppressing USP30 in neurons that are relevant to PD, we used dopamine decarboxylase (Ddc)-GAL439 to drive dUSP30^RNAi specifically in aminergic neurons of the fly nervous system. As a model of mitochondrial damage and PD, we treated flies with paraquat, a mitochondrial toxin linked to PD (Castello et al., J. Biol. Chem., 282: 14186-14193 (2007); Cocheme et al., J. Biol. Chem., 283: 1786-1798 (2008); Tanner et al., Environmental Health Perspect., 119: 866-872 (2011)). […] This climbing defect was fully rescued by additional treatment with L-DOPA (FIG. 17D), showing that this behavioral deficit is likely due to depletion of dopamine. Consistently, in control fly lines (Ddc-GAL4 or UAS-dUSP30^RNAi transgenics alone), paraquat treatment (10 mM, 48 hours) caused a 30-60% reduction in dopamine levels in fly heads without altering serotonin neurotransmitter levels (indicating specific toxicity of paraquat on the dopaminergic system in this model—FIG. 12F and FIG. 17E).

[5] = type: in vivo, Drosophila; details: 10 mM, 48 hours
Procedure: 1-day old adult males were fed a solution containing 5% sucrose only (in water) or 5% sucrose+10 mM paraquat (in water) on saturated Whatman paper. After 48 hours of treatment, 15 flies were collected per condition and homogenized in 100 μL water. Standard curve samples were generated by spiking appropriate amounts of paraquat to homogenates from untreated flies. Then the samples were vortex mixed, 200 μL of acetonitrile containing internal standard (Propranolol) was added. The samples were vortexed again and centrifuged at 10,000×g for 10 min. Supernatants were transferred to a new plate that contained 200 μL of water and analyzed by LC-MS/MS to quantify for concentrations of paraquat. The LC-MS/MS consisted of an Agilent 1100 series HPLC system (Santa Clara, Calif.) and an HTS PAL autosampler from CTC Analytics (Carrboro, N.C.) coupled with a 4000 Q TRAP® MS and TurbolonSpray® ion source from Applied Biosystems (Foster City, Calif.). HPLC separation was performed on a Waters Atlantis dC18 column (3 μm 100×2.1 mm) with a Krud Katcher guard column from Phenomenex. Quantitation was carried out using the multiple reaction monitoring (MRM) with transition 185.1→165.1 for paraquat and 260.2→183.1 for propranolol. The lower and upper limit of the assay is 10 μM and 1000 μM, respectively. The quatitation of the assay employed a calibration curve which was constructed through plotting the analyte/IS peak area ration versus the nominal concentration of paraquat with a weighed 1/x^2 linear regression.
To test whether USP30 knockdown has an effect on organism survival, we monitored the percentage of live flies over prolonged treatment with paraquat (10 mM, 96 hours). […] We confirmed that the benefit of USP30 knockdown was not due to differences in exposure to paraquat since all three fly lines ingested roughly equal amounts of paraquat as measured by LC-MS/MS (average mass of paraquat per fly: UAS-dUSP30^RNAi: 3.2 μg, Actin-GAL4: 2.7 μg, Actin-GAL4>UAS-dUSP30R^RNAi: 2.7 μg). […]

[6] = test system: cultured hippocampal neurons; assay: mt-Keima mitophagy index imaging in hippocampal neurons; type: cell-based, rat; details: relative to luciferase shRNA
Procedure: Dissociated hippocampal neuron cultures were prepared as described (Seeburg et al., Neuron 58: 571-583 (2008)) and transfected using Lipofectamine LTX PLUS at DIV 8-10. Constructs were expressed for 1-3 days for overexpression experiments and 3-4 days for knockdown experiments. mt-Keima-transfected neurons were imaged with a Leica TCS SP5 Laser Scanning Confocal microscope with a 40×/1.25 oil objective (0.07 μm/pixel resolution, […] confocal z-step size). Cells were kept in a humidified chamber maintained at 37° C./5% CO2 during imaging. Two images were acquired using a hybrid detector in sequential mode with 458 nm (neutral pH signal) and 543 nm (acidic pH signal) laser excitation, and emission fluorescence collected between 630-710 nm. All image quantification was performed by custom-written macros in ImageJ. For mt-Keima quantification, cell bodies were manually outlined and total area of high ratio (543 nm/458 nm) lysosomal signal was divided by the total area of somatic mitochondrial signal (mitophagy index).
To measure mitophagy in neurons, mt-Keima, a ratiometric pH-sensitive fluorescent protein that is targeted into the mitochondrial matrix, was monitored. A low ratio mt-Keima-derived fluorescence (543 nm/458 nm) reports neutral environment whereas a high ratio fluorescence reports acidic pH (Katayama et al., Chemistry & Biology 18: 1042-1094 (2011)). […]

USP30 = assay: immunoblot of endogenous USP30 in neuronal cultures; type: cell-based, rat
Description: Adeno-associated virus type2 (AAV2) particles expressing Parkin, PINK1 and USP30 shRNAs were produced by Vector Biolabs, Inc. from pAAV-BASIC-CAGeGFP-WPRE vector containing the HI promoter and shRNA expression cassette of the pSuper vectors.
To test the function of endogenous USP30, USP30 was knocked down using shRNAs. In heterologous cells, rat USP30 shRNA plasmid specifically eliminated the expression of transfected rat USP30 cDNA (FIG. 5B). The same rat USP30 shRNA led to a ˜85% reduction in endogenous USP30 in neuronal cultures (FIG. 5C). In neurons, USP30 knockdown increased the lysosomal delivery of mt-Keima (˜60% increase in mitophagy index), relative to negative control luciferase shRNA (FIG. 5D, F).

hippocampal neurons = assay: mito-roGFP relative oxidation index imaging; type: cell-based, rat; details: 0 = after DTT, 1 = after aldrithiol; luciferase shRNA control ~0.6
Description: Whether USP30 knockdown provides functional benefit to mitochondria and cells was examined next. ROS—which largely derive from mitochondria—is associated with neurodegenerative disorders and mitochondria dysfunction may contribute to increased oxidative stress in PD (Lee et al., Biochem. J, 441: 523-540 (2012)). To measure oxidative stress in mitochondria, mitochondria matrix-targeted ro-GFP (mito-roGFP), a redox-sensitive fluorescent protein that allows quantitative ratiometric imaging of mitochondrial redox potential was used (Dooley et al., J. Biol. Chem. 279: 22284-22293 (2004)).

Compound: N[C@@H](Cc1ccc(O)c(O)c1)C(=O)O [L-DOPA]
- rescue of paraquat-induced climbing defect (Drosophila [1]): fully rescued

Compound: CC(C)C[C@H](NC(=O)[C@@H]1CCCN1)C(=O)N[C@@H](Cc1ccc(O)cc1)C(=O)N[C@H]1CSSC[C@@H](C(=O)N[C@@H](Cc2ccccc2)C(=O)N[C@@H](Cc2ccc(O)cc2)C(=O)O)NC(=O)[C@H](CC(C)C)NC(=O)[C@H](Cc2ccc(O)cc2)NC(=O)CNC(=O)[C@H](Cc2ccc(O)cc2)NC(=O)[C@H]([C@@H](C)O)NC(=O)[C@H](CC(C)C)NC(=O)[C@H](CC(=O)O)NC(=O)[C@H](Cc2ccc(O)cc2)NC(=O)[C@H](Cc2ccccc2)NC1=O [USP30_3, PLYCFYDLTYGYLCFY] (H-PLYCFYDLTYGYLCFY-OH; disulfide 4-14; N-terminus and C-terminus assumed)
- spot ELISA signal/noise ratio [2]: ~5

Compound: C[n+]1ccc(-c2cc[n+](C)cc2)cc1 [paraquat, paraquat dichloride]
- flies alive (Drosophila [3]): < 15%
- reduction in dopamine levels in fly heads (Drosophila [4]): 30-60%
- average mass of paraquat per fly ([5]; Actin-GAL4>UAS-dUSP30^RNAi flies): 2.7 µg
- average mass of paraquat per fly ([5]; Actin-GAL4 flies): 2.7 µg
- average mass of paraquat per fly ([5]; UAS-dUSP30^RNAi flies): 3.2 µg

Compound: CCAGAGCCCTGTTCGGTTT ((CCAGAGCCCTGTTCGGTTT; as printed in the source, key not given here) [rat USP30 shRNA]
- increase in mitophagy index [6]: ~60%
- reduction in endogenous USP30 (USP30): ~85%
- relative oxidation index (hippocampal neurons): ~0.4

Source: US20200172911A1, “USP30 INHIBITORS AND METHODS OF USE” (Genentech, Inc., priority 2012, published 2020)
